The values that follow come from patent US9237761B2, “Methods and diets for lowering glucose and/or IGF-1 levels” (priority 2013, dated 2016).

For data set [1] the following is noted: 24 mg/kg i.v., mice fed ad lib AIN93G.
Data set [2] concerns 4T1 breast cancer. The data set can be described thus: 4T1 breast cancer subcutaneous tumor progression with cisplatin. Type of data set: in vivo, BalB/C mice. To be noted: three cycles, 12, 8, 8 mg/kg i.v. days 15, 33, 44. Here is the method:
Murine 4T1 breast cancer and GL26 glioma cells were maintained in DMEM (Invitrogen) supplemented with 10% fetal bovine serum (FBS) at 37° C. under 5% CO2. Cells in log phase growth were washed and suspended in PBS at 2×10^6 cells/mL and injected subcutaneously (s.c., 2×10^5 cells/mouse in 100 μL PBS) in the lower back region of the mouse. Tumor size was measured using a caliper. To mimic multi-cycle treatments in humans, mice were treated intravenously (i.v., lateral tail vein) with Cisplatin (Teva Parenteral Medicines Inc.) three times on days 15, 33 and 44 after tumor inoculation at 12, 8 and 8 mg/kg body weight, respectively. Mice were monitored daily and animals showing signs of severe stress, deteriorating health status or excess tumor load (2000 mm^3) were designated as moribund and euthanized.
The efficacy of STS in augmenting the treatment of various cancers is twofold: it protects against chemotherapy-induced toxicity to normal cells/tissues and sensitizes malignant cells to chemotherapeutic agents. […] To test whether a short-term intermittent 50% CR (ICR) diet could result in similar beneficial effects as the established fasting protocols, murine 4T1 breast cancer cells were implanted subcutaneously into female BalB/C mice and monitored the tumor progression. […]

Take `COc1cccc2c1C(=O)c1c(O)c3c(c(O)c1C2=O)C[C@@](O)(C(=O)CO)C[C@@H]3O[C@H]1C[C@H](N)[C@H](O)[C@H](C)O1` [DXR, Doxorubicin]: the “survival by day 25 post injection” value in data set [1] came out at 16%.
Turning to `N.N.[Cl][Pt][Cl]` [cisplatin, Cisplatin], the “tumor volume vs untreated mice” value in data set [2] is “approximately half the size”.
